From patent publication US20230236206A1, “PREDICTING A SEPSIS CONDITION” (PHARM-ANALYT LABOR GMBH, priority 2020, published 2023)

Assay: Hydrophilicity of BM1
Type: physicochemical

Hydrophilicity: very hydrophilic
SMILES: C[C@@H](O)[C@H](NC(=O)Nc1ncnc2c1ncn2[C@@H]1O[C@H](CO)C(O)C1O)C(=O)O (stereo partly drawn) [BM1, N6-Carbamoylthreonyl-D-adenosine]
